Source: US5328906A, “0-(3-amino-2-hydroxypropyl)-hydroximic acid halides and process for preparing the same” (Biorex Kutato-Fejleszto KFT, priority 1993, dated 1994)

How the values were obtained:
diabetic aorta = assay: beta-blocking effect on diabetic (Streptosotocin treated) rat aorta spiral and/or ring preparate, noradrenalin contractions; settings: aorta spiral of diabetic animals treated with Streptosotocin
Experimental: (§1) The beta-blocking effect of the compounds according to the present invention was tested on rat aorta spiral and/or ring preparate <J. Pharmacol. Exp. Therap. 158, 531 (1967)>. The experimental diabetes was induced with Streptosotocin <2-(3-nitroso-3-methylureido)-2-deoxy-D-glucose>. The reaction was evaluated as positive when the alpha stimulating effect of the noradrenalin on the control preparate, i.e. that having not been treated with Streptosotocin, was not influenced, but protected on the diabetic aorta. In the tests carried out with the compounds according to the present invention a general selective effect occurred, manifesting in case of diabetic tests in a strong, in case of normal tests in the absence of or in the presence of only a slight beta-blocking effect.
Experiments were carried out to study whether on the aorta spiral preparates of diabetic animals treated with Streptosotocin the Inderal protects the contractions induced by noradrenalin. As control, animals previously not treated with Streptosotocin were used. The results obtained essentially conformed to those known from the literature <Amer. […] (Endocrinology. Vol. 93, No. 3, September 1973). […]

[1] = test system: control preparate (rat aorta); assay: beta-blocking effect on control (not Streptosotocin treated) rat aorta spiral and/or ring preparate, noradrenalin contractions; settings: aorta spiral of animals not treated with Streptosotocin (normal tests)
Experimental: as §1
Experiments were carried out to study whether on the aorta spiral preparates of diabetic animals treated with Streptosotocin the Inderal protects the contractions induced by noradrenalin. As control, animals previously not treated with Streptosotocin were used. The results obtained essentially conformed to those known from the literature <Amer. […] (Endocrinology. Vol. 93, No. 3, September 1973).

[2] = acute toxicity LD50 on Wistar rats; settings: rat, in vivo, iv

Structure (SMILES)	protection against the alpha stimulating effect (contractions) of noradrenalin (diabetic aorta)	protection against the alpha stimulating effect (contractions) of noradrenalin [1]	LD50 [2] [mg/kg]
CC(C)NCC(O)COc1cccc2ccccc12 (stereo not drawn) [Inderal, 1-isopropylamino-3-(naphtyloxy)-propan-2-ol]	the alpha stimulating effect of noradrenalin was protected by the Inderal in diabetic tests	not in the normal tests	
OC(CON=C(Cl)c1cccnc1)CN1CCCCC1 (stereo not drawn) [Example 5, O-(3-piperidino-2-hydroxy-propyl)-3-piridyl-hydroximic acid chloride]			110
